One data set concerns type 2 diabetic patients. Nature of the data set: TB4-7 trial: randomized, double-blind, placebo-controlled 2-month trial in type 2 diabetic patients. In kind it is in vivo, human. As to conditions: 10 mg s.c. twice a week for 2 months. On the procedure:
The inventors have performed a single-center, randomized, double-blind, placebo-controlled 2-month trial of twice a week s.c. injection of 10 mg of TB4-7 (a peptide having the amino acid sequence LKKTETQ (SEQ ID NO:1)) in type 2 diabetic patients inadequately treated with diet/lifestyle or stable doses of common hypoglycemics for at least 3 months. The results from an interim 2 month report of that trial is provided in this example.
Patients with type 2 diabetes for >/=1 year were entered into 2 strata of hemoglobin A(1c) (HbA(1c)) levels: Stratum 1: 8.0% to 9.9%; and Stratum 2: 10.0% to 12.0%.
All subjects began a 1-month single-blind placebo run-in phase, followed by randomization in a 2:1 ratio of active treatment: placebo, to 2 months of double-blind treatment with either TB4-7 or saline placebo. Concurrent oral agents were continued unchanged throughout the study.
The primary outcome was the change in HbA(1c) from randomization; results of each stratum were analyzed independently. […] 14 subjects entered stratum 1 and 12 entered stratum 2.

Another data set deals with dogs with canine DM. Nature of the data set: Dog diabetes mellitus trials. In kind it is in vivo. As to conditions: 10 mg once a week. As for the experimental part: A total of 48 dogs took part in the trials. Dogs where put into two groups of 24: one group was injected with the full 10 mg Thymosin beta 4 protein (TB4) once a week; and the other group was injected with 10 mg TB4-7 once a week for four weeks.
Diagnosis criteria of DM and the pre-requisites for study inclusion were:
(1) clinical signs consistent with canine DM, such as polydipsia, polyuria, polyphagia, and weight loss; (2) persistent and 24-hour fasting hyperglycemia (>200 mg/dL) for more than 2 days; (3) persistent glycosuria for more than 2 days; and (4) insulin supplementation required to maintain normal glucose levels.
Glycosylated hemoglobin and blood glucose levels where measured at before every injection and seven days after the last injection.

The mark [1] stands for this setting: Week 0 (before first injection).
Setting [2] is: Week 4 (seven days after last injection).

No end group written: not given here.

With LKKTETQ [TB4-7, LKKTETQ], in the data set on type 2 diabetic patients, the adverse events result was “No adverse events” and the tolerability result was “well tolerated”.
With “Thymosin beta 4 (MSDKPDMAEIEKFDKSKLKKTETQEKNPLPSKETIEQEKQAGES; listed as Homo sapiens) [TB4, the full Thymosin beta 4 protein (TB4)]”, the Glucose in the data set on dogs with canine DM (setting [1]) was found to be 298 ± 64 mg/dL; in the data set on dogs with canine DM (Week 1) it was 310 ± 78 mg/dL; in the data set with dogs with canine DM (Week 2), 296 ± 64 mg/dL; in the data set with dogs with canine DM (Week 3), 275 ± 72 mg/dL; with dogs with canine DM (setting [2]), 213 ± 82 mg/dL. Further, the HbA1c with dogs with canine DM (setting [1]) was determined as 7.7 ± 2.2%; in the data set with dogs with canine DM (Week 1) it was 7.8 ± 2.3%; in the data set with dogs with canine DM (Week 2), 7.7 ± 2.2%; in the data set on dogs with canine DM (Week 3) it was 7.2 ± 2.6%; in the data set on dogs with canine DM (setting [2]), 6.1 ± 2.9%.

(Values after US8895505B2, “Method of treatment of type 2 diabetes” (AdiStem Ltd., priority 2009, dated 2014).)
